Assay results from patent publication US11691980B2, “Liphagal analog and multi-targeted kinase inhibitor containing liphagal or analog thereof” (TOHOKU UNIVERSITY, priority 2017, dated 2023).

Tests used:
Assay type in all cases: biochemical
[1] = molecular target: T1, INSR (Homo sapiens, UniProt P06213); assay: mobility shift assay
T1 construct: purchased Carna Biosciences

[2] = molecular target: T2, EPHA1 (Homo sapiens, UniProt P21709); assay: mobility shift assay
T2 construct: purchased Carna Biosciences

[3] = molecular target: T3, PKCγ (Homo sapiens, UniProt P05129); assay: mobility shift assay
T3 construct: purchased Carna Biosciences

[4] = molecular target: T4, MAP2K5 Cascade (Homo sapiens, UniProt Q13163); assay: mobility shift assay
T4 construct: purchased Carna Biosciences

[5] = molecular target: T5, JNK3 (Homo sapiens, UniProt P53779); assay: mobility shift assay
T5 construct: purchased Carna Biosciences

[6] = molecular target: T6, SYK (Homo sapiens, UniProt P43405); assay: mobility shift assay
T6 construct: purchased Carna Biosciences

[7] = molecular target: T7, PYK2 (Homo sapiens, UniProt Q14289); assay: mobility shift assay
T7 construct: purchased Carna Biosciences

[8] = molecular target: T8, p38α (Homo sapiens, UniProt Q16539); assay: mobility shift assay
T8 construct: purchased Carna Biosciences

[9] = molecular target: T9, HPK2 (Homo sapiens, UniProt Q9H2X6); assay: mobility shift assay
T9 construct: purchased Carna Biosciences

[10] = molecular target: T10, SGK (Homo sapiens, UniProt O00141); assay: mobility shift assay
T10 construct: purchased Carna Biosciences

[11] = molecular target: T11, PKCl (Homo sapiens, UniProt P41743); assay: mobility shift assay
T11 construct: purchased Carna Biosciences

[12] = molecular target: T12, DDR2 (Homo sapiens, UniProt Q16832); assay: mobility shift assay
T12 construct: purchased Carna Biosciences

[13] = molecular target: T13, AurC (Homo sapiens, UniProt Q9UQB9); assay: mobility shift assay
T13 construct: purchased Carna Biosciences

[14] = molecular target: T14, NEK9 (Homo sapiens, UniProt Q8TD19); assay: mobility shift assay
T14 construct: purchased Carna Biosciences

[15] = molecular target: T15, TYK2 (Homo sapiens, UniProt P29597); assay: mobility shift assay
T15 construct: purchased Carna Biosciences

[16] = molecular target: T16, NuaK1 (Homo sapiens, UniProt O60285); assay: mobility shift assay
T16 construct: purchased Carna Biosciences

[17] = test system: MNK; assay: mobility shift assay; settings: 10 μM
[18] = molecular target: T17, DYRK2 (Homo sapiens, UniProt Q92630); assay: mobility shift assay
T17 construct: purchased Carna Biosciences

[19] = molecular target: T18, TSSK3 (Homo sapiens, UniProt Q96PN8); assay: mobility shift assay
T18 construct: purchased Carna Biosciences

[20] = molecular target: T19, TNK1 (Homo sapiens, UniProt Q13470); assay: mobility shift assay
T19 construct: purchased Carna Biosciences

[21] = molecular target: T20, FGFR1(V561M) (Homo sapiens, UniProt P11362, V561M); assay: mobility shift assay
T20 construct: purchased Carna Biosciences

[22] = molecular target: T21, JNK2 (Homo sapiens, UniProt P45984); assay: mobility shift assay
T21 construct: purchased Carna Biosciences

[23] = molecular target: T22, MARK2 (Homo sapiens, UniProt Q7KZI7); assay: mobility shift assay
T22 construct: purchased Carna Biosciences

[24] = molecular target: T23, TAOK2 (Homo sapiens, UniProt Q9UL54); assay: mobility shift assay
T23 construct: purchased Carna Biosciences

[25] = molecular target: T24, LTK (Homo sapiens, UniProt P29376); assay: mobility shift assay
T24 construct: purchased Carna Biosciences

[26] = molecular target: T25, DYRK1B (Homo sapiens, UniProt Q9Y463); assay: mobility shift assay
T25 construct: purchased Carna Biosciences

[27] = molecular target: T26, MAP2K1 Cascade (Homo sapiens, UniProt Q02750); assay: mobility shift assay
T26 construct: purchased Carna Biosciences

[28] = molecular target: T27, ITK (Homo sapiens, UniProt Q08881); assay: mobility shift assay
T27 construct: purchased Carna Biosciences

[29] = molecular target: T28, DLK_Cascade (Homo sapiens, UniProt Q12852); assay: mobility shift assay
T28 construct: purchased Carna Biosciences

[30] = molecular target: T29, SRM (Homo sapiens, UniProt Q9H3Y6); assay: mobility shift assay
T29 construct: purchased Carna Biosciences

[31] = molecular target: T30, EFHB2 (Homo sapiens, UniProt P29323); assay: mobility shift assay
T30 construct: purchased Carna Biosciences

[32] = molecular target: T31, IKKβ (Homo sapiens, UniProt O14920); assay: mobility shift assay
T31 construct: purchased Carna Biosciences

[33] = molecular target: T32, PKD3 (Homo sapiens, UniProt O94806); assay: mobility shift assay
T32 construct: purchased Carna Biosciences

[34] = molecular target: T33, DCAMKL2 (Homo sapiens, UniProt Q8N568); assay: mobility shift assay
T33 construct: purchased Carna Biosciences

[35] = molecular target: T34, DDR1 (Homo sapiens, UniProt Q08345); assay: mobility shift assay
T34 construct: purchased Carna Biosciences

[36] = molecular target: T35, SRC (Homo sapiens, UniProt P12931); assay: mobility shift assay
T35 construct: purchased Carna Biosciences

[37] = molecular target: T36, MST 4 (Homo sapiens, UniProt Q9P289); assay: mobility shift assay
T36 construct: purchased Carna Biosciences

[38] = molecular target: T37, QIK (Homo sapiens, UniProt Q9H0K1); assay: mobility shift assay
T37 construct: purchased Carna Biosciences

[39] = molecular target: T38, KIT(V560G) (Homo sapiens, UniProt P10721, V560G); assay: mobility shift assay
T38 construct: purchased Carna Biosciences

[40] = molecular target: CDK6 (Homo sapiens, UniProt Q00534); assay: IC50 by mobility shift assay; settings: Table 4, inhibitory activity against CDK6, mobility shift assay; read-out: IC50 (μM), Kinase
Description: Next, the compounds produced in Production Examples described above were each assessed for its inhibitory activity against CDK6 by mobility shift assay. In addition, a combination showing the highest inhibitory activity is indicated by italics.

[41] = molecular target: T39, KIT(V654A) (Homo sapiens, UniProt P10721, V654A); assay: mobility shift assay
T39 construct: purchased Carna Biosciences

T22 sequence (Q7KZI7 whole entry): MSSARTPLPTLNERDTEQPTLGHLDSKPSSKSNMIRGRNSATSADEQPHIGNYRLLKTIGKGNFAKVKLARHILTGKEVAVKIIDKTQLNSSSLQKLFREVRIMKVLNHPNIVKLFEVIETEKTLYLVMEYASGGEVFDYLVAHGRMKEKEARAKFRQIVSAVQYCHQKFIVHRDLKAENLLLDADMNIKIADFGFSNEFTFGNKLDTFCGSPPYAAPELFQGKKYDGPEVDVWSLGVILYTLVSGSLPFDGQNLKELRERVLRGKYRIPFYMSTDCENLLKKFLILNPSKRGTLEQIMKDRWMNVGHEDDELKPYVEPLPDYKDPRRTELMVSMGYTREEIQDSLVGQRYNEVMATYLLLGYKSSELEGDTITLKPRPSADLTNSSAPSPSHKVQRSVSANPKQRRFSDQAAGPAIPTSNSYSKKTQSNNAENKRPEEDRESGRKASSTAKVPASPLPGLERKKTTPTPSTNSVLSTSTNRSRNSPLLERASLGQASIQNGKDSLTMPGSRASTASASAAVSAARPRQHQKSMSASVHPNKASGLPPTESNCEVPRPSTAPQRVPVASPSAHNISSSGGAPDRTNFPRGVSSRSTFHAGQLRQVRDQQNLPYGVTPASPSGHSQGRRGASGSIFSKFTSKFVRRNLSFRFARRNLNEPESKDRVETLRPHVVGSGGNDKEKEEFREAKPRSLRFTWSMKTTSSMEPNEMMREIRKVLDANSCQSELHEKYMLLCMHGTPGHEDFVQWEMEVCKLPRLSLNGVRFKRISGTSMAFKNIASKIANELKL
T28 sequence (Q12852 whole entry): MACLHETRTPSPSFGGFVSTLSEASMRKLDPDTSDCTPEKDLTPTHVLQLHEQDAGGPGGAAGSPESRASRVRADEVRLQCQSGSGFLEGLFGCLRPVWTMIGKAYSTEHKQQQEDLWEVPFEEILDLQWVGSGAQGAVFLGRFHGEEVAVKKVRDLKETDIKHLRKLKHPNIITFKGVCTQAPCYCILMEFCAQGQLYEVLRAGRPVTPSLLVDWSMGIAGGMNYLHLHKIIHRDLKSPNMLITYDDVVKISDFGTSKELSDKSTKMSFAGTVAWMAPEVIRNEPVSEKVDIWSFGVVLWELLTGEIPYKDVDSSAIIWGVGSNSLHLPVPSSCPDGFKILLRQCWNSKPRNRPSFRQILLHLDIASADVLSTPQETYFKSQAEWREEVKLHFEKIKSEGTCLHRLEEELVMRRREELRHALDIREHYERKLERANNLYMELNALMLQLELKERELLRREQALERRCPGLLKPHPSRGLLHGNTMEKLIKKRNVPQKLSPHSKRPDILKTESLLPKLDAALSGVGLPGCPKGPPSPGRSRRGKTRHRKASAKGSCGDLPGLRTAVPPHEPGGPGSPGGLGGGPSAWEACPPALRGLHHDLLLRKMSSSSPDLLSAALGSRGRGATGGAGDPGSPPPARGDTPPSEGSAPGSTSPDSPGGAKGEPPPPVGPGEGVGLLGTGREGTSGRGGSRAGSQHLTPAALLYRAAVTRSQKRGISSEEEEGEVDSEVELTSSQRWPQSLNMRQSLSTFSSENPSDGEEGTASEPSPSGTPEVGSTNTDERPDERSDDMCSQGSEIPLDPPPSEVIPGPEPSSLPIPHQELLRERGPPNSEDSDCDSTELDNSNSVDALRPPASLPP
T5 sequence (P53779 whole entry): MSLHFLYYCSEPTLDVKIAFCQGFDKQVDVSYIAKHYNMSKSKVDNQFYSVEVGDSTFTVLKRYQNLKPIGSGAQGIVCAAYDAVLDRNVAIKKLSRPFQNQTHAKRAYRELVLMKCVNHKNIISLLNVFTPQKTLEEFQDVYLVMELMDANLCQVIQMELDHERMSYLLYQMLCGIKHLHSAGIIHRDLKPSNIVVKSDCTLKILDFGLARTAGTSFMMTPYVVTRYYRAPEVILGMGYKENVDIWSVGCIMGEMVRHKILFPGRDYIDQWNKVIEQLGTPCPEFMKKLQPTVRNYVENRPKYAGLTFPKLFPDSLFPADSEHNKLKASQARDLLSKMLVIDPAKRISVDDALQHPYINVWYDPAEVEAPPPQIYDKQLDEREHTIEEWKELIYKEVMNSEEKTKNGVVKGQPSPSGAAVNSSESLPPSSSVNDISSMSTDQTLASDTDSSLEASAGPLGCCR
T19 sequence (Q13470 whole entry): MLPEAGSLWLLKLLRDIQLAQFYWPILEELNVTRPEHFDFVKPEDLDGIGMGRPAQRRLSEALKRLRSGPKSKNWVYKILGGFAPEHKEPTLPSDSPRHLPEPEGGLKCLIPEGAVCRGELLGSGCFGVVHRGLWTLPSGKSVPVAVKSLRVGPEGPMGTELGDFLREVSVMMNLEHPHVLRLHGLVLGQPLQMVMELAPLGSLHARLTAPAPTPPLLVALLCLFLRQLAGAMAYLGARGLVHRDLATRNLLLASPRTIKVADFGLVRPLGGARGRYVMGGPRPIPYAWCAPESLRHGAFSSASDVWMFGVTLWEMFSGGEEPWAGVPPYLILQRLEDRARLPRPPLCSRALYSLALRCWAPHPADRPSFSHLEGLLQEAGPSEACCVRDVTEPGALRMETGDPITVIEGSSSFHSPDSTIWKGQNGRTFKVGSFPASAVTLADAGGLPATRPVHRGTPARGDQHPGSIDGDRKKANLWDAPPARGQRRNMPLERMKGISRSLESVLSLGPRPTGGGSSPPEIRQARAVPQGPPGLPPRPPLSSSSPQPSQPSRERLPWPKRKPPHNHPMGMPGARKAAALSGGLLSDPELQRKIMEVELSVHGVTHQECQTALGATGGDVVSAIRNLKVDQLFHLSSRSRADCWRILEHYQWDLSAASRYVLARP
T33 sequence (Q8N568 whole entry): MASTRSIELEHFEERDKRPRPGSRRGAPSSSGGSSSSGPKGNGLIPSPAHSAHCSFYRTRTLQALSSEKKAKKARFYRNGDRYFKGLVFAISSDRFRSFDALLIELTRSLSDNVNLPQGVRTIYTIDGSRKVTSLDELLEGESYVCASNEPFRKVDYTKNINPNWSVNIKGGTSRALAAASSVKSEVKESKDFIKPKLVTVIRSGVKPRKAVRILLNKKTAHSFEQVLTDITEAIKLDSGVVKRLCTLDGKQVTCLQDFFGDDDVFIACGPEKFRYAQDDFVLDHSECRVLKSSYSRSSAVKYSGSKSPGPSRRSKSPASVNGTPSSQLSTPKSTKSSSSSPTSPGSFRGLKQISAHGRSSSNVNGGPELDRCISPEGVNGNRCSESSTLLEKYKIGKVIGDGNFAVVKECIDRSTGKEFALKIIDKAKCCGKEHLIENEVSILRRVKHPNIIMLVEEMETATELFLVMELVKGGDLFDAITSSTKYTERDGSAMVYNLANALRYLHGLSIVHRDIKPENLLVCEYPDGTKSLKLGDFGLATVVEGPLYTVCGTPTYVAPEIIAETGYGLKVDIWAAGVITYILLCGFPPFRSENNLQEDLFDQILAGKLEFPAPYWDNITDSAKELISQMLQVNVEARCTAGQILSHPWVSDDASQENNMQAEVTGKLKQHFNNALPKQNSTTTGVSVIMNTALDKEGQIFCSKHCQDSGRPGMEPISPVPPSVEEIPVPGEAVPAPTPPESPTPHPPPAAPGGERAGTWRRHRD
T32 sequence (O94806 whole entry): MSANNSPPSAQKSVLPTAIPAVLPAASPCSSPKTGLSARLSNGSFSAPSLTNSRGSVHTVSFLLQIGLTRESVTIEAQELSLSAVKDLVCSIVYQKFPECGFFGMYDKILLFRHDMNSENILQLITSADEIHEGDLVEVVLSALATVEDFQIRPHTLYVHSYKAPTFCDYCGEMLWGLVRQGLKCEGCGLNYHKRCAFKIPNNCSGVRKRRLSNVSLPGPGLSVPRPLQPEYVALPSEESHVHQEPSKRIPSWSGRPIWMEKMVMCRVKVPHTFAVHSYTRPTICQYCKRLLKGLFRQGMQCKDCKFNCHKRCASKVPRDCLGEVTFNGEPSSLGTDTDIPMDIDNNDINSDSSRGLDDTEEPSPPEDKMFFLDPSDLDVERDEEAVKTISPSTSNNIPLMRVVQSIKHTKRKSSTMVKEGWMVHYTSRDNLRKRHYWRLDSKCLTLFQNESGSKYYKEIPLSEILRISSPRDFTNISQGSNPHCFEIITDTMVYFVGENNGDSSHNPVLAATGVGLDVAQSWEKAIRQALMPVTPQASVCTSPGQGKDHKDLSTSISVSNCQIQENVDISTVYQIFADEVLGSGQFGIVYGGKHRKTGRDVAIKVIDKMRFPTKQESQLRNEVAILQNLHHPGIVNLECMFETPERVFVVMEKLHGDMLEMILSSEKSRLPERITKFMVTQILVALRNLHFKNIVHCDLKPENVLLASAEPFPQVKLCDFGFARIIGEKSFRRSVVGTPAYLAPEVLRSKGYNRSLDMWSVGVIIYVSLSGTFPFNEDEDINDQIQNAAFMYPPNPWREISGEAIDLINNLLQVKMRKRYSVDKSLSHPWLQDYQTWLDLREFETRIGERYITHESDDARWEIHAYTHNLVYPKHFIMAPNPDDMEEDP
T11 sequence (P41743 whole entry): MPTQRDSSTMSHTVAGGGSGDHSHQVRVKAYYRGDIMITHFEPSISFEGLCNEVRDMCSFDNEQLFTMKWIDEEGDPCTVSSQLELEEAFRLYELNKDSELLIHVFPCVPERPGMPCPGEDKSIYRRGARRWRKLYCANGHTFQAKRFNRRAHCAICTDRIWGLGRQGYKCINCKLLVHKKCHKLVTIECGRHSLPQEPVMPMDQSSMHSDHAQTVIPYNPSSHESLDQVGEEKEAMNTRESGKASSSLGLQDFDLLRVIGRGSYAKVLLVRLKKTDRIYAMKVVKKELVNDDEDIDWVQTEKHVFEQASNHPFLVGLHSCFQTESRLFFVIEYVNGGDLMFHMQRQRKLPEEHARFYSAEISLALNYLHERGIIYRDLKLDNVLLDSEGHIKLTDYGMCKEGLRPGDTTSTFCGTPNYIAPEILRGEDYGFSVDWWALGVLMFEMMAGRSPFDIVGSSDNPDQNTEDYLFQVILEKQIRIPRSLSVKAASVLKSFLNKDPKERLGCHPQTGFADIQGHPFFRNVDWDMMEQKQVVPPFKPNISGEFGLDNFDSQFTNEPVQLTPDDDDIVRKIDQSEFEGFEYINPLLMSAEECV

With `C[C@@H]1CC[C@H]2C(C)(C)CCC[C@]2(C)c2c1oc1c(C=O)c(O)c(O)cc21` [LG-1, liphagal] as the compound, how does the inhibition at 10 µM [1] read?
Its inhibition at 10 µM is 14.1%.

What about the inhibition at 10 µM [2] of the same compound?
Its inhibition at 10 µM is 0.5%.

And the inhibition at 10 µM [3]?
The inhibition at 10 µM was -1.9%.

And the inhibition at 10 µM [4]?
Its inhibition at 10 µM is -1.3%.

What about the inhibition at 10 µM [5] of the same compound?
The inhibition at 10 µM was -5.8%.

What about the inhibition at 10 µM [6] of the same compound?
Its inhibition at 10 µM is 17%.

And the inhibition at 10 µM [7]?
The inhibition at 10 µM was 21.6%.

And the inhibition at 10 µM [8]?
The inhibition at 10 µM was 0.1%.

What about the inhibition at 10 µM [9] of the same compound?
Its inhibition at 10 µM is 27%.

And the inhibition at 10 µM [10]?
Its inhibition at 10 µM is 12.4%.

And the inhibition at 10 µM [11]?
Its inhibition at 10 µM is 12.3%.

And the inhibition at 10 µM [12]?
The inhibition at 10 µM was 42.5%.

And the inhibition at 10 µM [13]?
Its inhibition at 10 µM is 36.3%.

What about the inhibition at 10 µM [14] of the same compound?
Its inhibition at 10 µM is 27.3%.

What about the inhibition at 10 µM [15] of the same compound?
The inhibition at 10 µM was -6.5%.

And the inhibition at 10 µM [16]?
Its inhibition at 10 µM is 6%.

What about the “% Inhibition” value [17] of the same compound?
The value was 0.0%.

What about the inhibition at 10 µM [18] of the same compound?
The inhibition at 10 µM was 18.9%.

What about the inhibition at 10 µM [19] of the same compound?
Its inhibition at 10 µM is 85.6%.

And the inhibition at 10 µM [20]?
Its inhibition at 10 µM is 5.1%.

What about the inhibition at 10 µM [21] of the same compound?
Its inhibition at 10 µM is -12.6%.

What about the inhibition at 10 µM [22] of the same compound?
Its inhibition at 10 µM is 10.7%.

What about the inhibition at 10 µM [23] of the same compound?
Its inhibition at 10 µM is 2.7%.

What about the inhibition at 10 µM [24] of the same compound?
Its inhibition at 10 µM is 24.5%.

And the inhibition at 10 µM [25]?
Its inhibition at 10 µM is 1.8%.

And the inhibition at 10 µM [26]?
The inhibition at 10 µM was 21.8%.

What about the inhibition at 10 µM [27] of the same compound?
The inhibition at 10 µM was 4.1%.

And the inhibition at 10 µM [28]?
Its inhibition at 10 µM is -6.5%.

And the inhibition at 10 µM [29]?
The inhibition at 10 µM was 13.9%.

And the inhibition at 10 µM [30]?
Its inhibition at 10 µM is 19%.

What about the inhibition at 10 µM [31] of the same compound?
Its inhibition at 10 µM is 5.4%.

What about the inhibition at 10 µM [32] of the same compound?
Its inhibition at 10 µM is 2.4%.

And the inhibition at 10 µM [33]?
Its inhibition at 10 µM is 2.7%.

What about the inhibition at 10 µM [34] of the same compound?
The inhibition at 10 µM was 14%.

And the inhibition at 10 µM [35]?
Its inhibition at 10 µM is 60.5%.

And the inhibition at 10 µM [36]?
Its inhibition at 10 µM is -7.1%.

And the inhibition at 10 µM [37]?
Its inhibition at 10 µM is 80.3%.

And the inhibition at 10 µM [38]?
Its inhibition at 10 µM is 2.7%.

What about the inhibition at 10 µM [39] of the same compound?
The inhibition at 10 µM was 17.9%.

What about the IC50 [40] of the same compound?
Its IC50 is 6.78 µM.

What about the inhibition at 10 µM [41] of the same compound?
The inhibition at 10 µM was 22.3%.
